Measured values taken from patent US20260152533A1, “COMBINATION INHIBITORS FOR TREATING FIBROSIS” (Memorial Sloan-Kettering Cancer Center, priority 2021, published 2026).

Experiments:
[1] = tested on: mammary fibroblasts (MFBs); assay: Western blot of MFBs; format: cell-based, mouse; settings: TGFβ
Text: NIH-3T3 cells were obtained from ATCC (CRL-1658); 293 T cells were obtained from ATCC (CRL-3216). PSCs were isolated from C57BL/6 mice by differential centrifugation as previously described^49 and their mesenchymal origin was validated by analyzing the expression of various mesenchymal and epithelial markers. MFBs were isolated from FVB/N mice by differential centrifugation as previously described^50. DB7 mouse breast cancer cells were obtained from Alexander Borowsky (University of California Davis Comprehensive Cancer Center, Sacramento, CA, USA) through an MTA to Ohio State University (OSU). KPC (Kras^LSL-G12D; Trp53^LSL-R172H; Pdx1-Cre) mouse PDAC cells were a gift from Scott Lowe (Memorial Sloan Kettering Cancer Center. (MSKCC)). […]
(§1) Lysates were generated by incubating cells or ground tumors in RIPA buffer (Millipore); […] of cleared lysate were analyzed by SDS-polyacrylamide gel electrophoresis (SDS-PAGE) as previously described^11. […] Quantification of band intensities of collagen I relative to […] or vinculin in tumor allograft experiments was performed with Image Lab software v6.0 (Bio-Rad).

[2] = tested on: pancreatic stellate cells (PSCs); assay: Western blot of PSCs; format: cell-based, mouse; settings: PSCs, TGFβ
Text: PSCs were isolated from C57BL/6 mice by differential centrifugation as previously described^49 and their mesenchymal origin was validated by analyzing the expression of various mesenchymal and epithelial markers. MFBs were isolated from FVB/N mice by differential centrifugation as previously described^50. DB7 mouse breast cancer cells were obtained from Alexander Borowsky (University of California Davis Comprehensive Cancer Center, Sacramento, CA, USA) through an MTA to Ohio State University (OSU). KPC (Kras^LSL-G12D; Trp53^LSL-R172H; Pdx1-Cre) mouse PDAC cells were a gift from Scott Lowe (Memorial Sloan Kettering Cancer Center. (MSKCC)). All cells were cultured at 37° C. in 5% carbon dioxide (CO2) and 20% oxygen (O2) and were maintained in Dulbecco's Modified Eagles medium (DMEM) (25 mM D-glucose, 2 mM L-glutamine) supplemented with 10% fetal bovine serum (FBS) (Gemini), 100 units/ml penicillin and 100 μg/ml streptomycin. Primary PSC and MFB cells were kept in culture for no more than ten passages. Experiments with iCAFs and myCAFs were performed as previously described^29. In brief, qPSCs were generated by culturing PSCs in a dome of GFR Matrigel (Corning) in DMEM; iCAFs were generated by culturing PSCs in a dome of GFR Matrigel in DMEM conditioned by KPC cells for 48 h; myCAFs were generated by monolayer culture of PSCs. Differentiation was validated by analyzing the expression of iCAF/myCAF markers^29. […]
as §1

Substance: TGFβ: transforming growth-factor beta; TGFβ-1 purchased from Peprotech
- collagen I production ([1]; 20% Gln, 48 hours): unable to proliferate and produce collagen I
- GCN2 phosphorylation ([1]; low Gln (20%), 48 hours (FIG. 8K)): showed GCN2 phosphorylation
- collagen I production ([2]; 20% Gln, 48 hours): unable to proliferate and produce collagen I
- GCN2 phosphorylation ([2]; low Gln (20%), 48 hours (FIG. 8J)): showed GCN2 phosphorylation
